Common to all, as to format: cell-based, Chinese hamster
Assay [1] relates to LY-A2 cell. Nature of the assay: influence of ceramide transport inhibitor on SM synthesis, [14C] serine labeling. To be noted: FIG. 8. The method, then:
(§1) CHO-K1 cell, LY-A2 cell, and LY-A2/hCERT cell were inoculated at the cell density of 1.0×10^6 per culture dish having the 60-mm diameter, and cultured at 33° C. overnight. Subsequently, it was exchanged with […] of Nutridoma medium, after [^14C] serine (0.75 μCi) or [^14C] choline (1.0 μCi) have been added, in the case where [^14C] serine is added, it was cultured for 2 hours, and in the case where [^14C] choline is added, it was cultured at 33° C. for 5 hours. However, in the case where the influence on (1R, 3R) HPA-12 is analyzed, after it was pretreated at […] for 15 minutes in 1.5 mL of Nutridoma medium to which 1 μM of (1R,3R) HPA-12 has been added (in control experiment, dimethylsulfoxide used for dissolving a drug was added at the concentration corresponding to 0.01% of the final concentration), [^14C] serine was added, and cultured at 33° C. for 2 hours. After the cell was washed twice in 2 mL of cooled PBS, dissolved in 900 μL of sodium dodecyl sulfate (SDS), then, 800 μL and 20 μL of dissolved matter were used for determining lipid extraction and protein concentration. For the purpose of analyzing lipid labeled with [^14C] serine, the lipid was separated by TLC by making acetic methyl/n-propanol/chloroform/methanol/0.25% KCl (25:25:25 10:9, volume ratio) development solvent. The radioactive lipid separated on the plate was detected and analyzed by an image analyzer.
(§2) The present inventors have already found a selective inhibitor with respect to ATP dependent ceramide transport pathway (J. Biol. Chem. 276,43994-44002, 2001). For the purpose of examining whether or not ceramide transport pathway recovered by introducing hCERT is a transport pathway which is sensitive to (1R,3R) HPA-12, the analysis of the influence of (1R, 3R) HPA-12 treatment with respect to SM biosynthesis was performed by performing a lipid metabolism labeling experiment using radioactive serine.

In another assay the test system is CHO-K1 cell. The description is as above. The following applies: 1 μM, FIG. 8. The method, then:
as §1, §2

Assay [2] relates to LY-A2 cell. The assay is described as follows: MCD resistance by counting the number of survived cells. The following applies: LY-A2 cell infected with expressing retrovirus, FIGS. 10(A), 12(A). On the procedure:
The method of selecting function recovery strain used herein was performed on the basis of the knowledge that a cell whose SM content has been reduced becomes highly sensitive to cholesterol drawing reagent/methylcyclodextrin (MCD), and the cell whose SM content has been recovered recovers the resistance to MCD. As described in the foregoing paragraph, after the infected cell that has been seeded and cultured at 33° C. overnight was washed twice in 10 mL of serum-free F12 medium, it has been at 37° C. for one hour in 25 mL. After the culture dish was washed three times with 12 mL of PBS, 25 mL of F12/NBS was added and cultured at 33° C. for 7 to 10 days. […]
It has been validated whether or not CERT protein and CERTL which is a large separate splicing type product having 26 amino acid residue complements the deletion of LY-A cell. […] The MCD resistance of the obtained (LY-A2+FL-hCERT) cell and ((LY-A2+FL-hCERTL) cell were measured by counting the number of survived cells in accordance with the method described in <Method of selecting MCD resistance recovery strain>. Moreover, the MCD resistance of (LY-A2+empty vector) cell, CHO-K1 cell and LY-A2 cell obtained by infecting LY-A2 cell using pLIB vector in which gene has not been inserted were also similarly measured. The results are indicated in FIG. 10(A). […]

This is an account of results in patent publication US20080085859A1, “Drug Promoting Ceramide Transport, Base Sequence for Producing the Drug, Method of Measuring Activity of Promoting Ceramide Release and Method of Measuring Activity of Promoting Intermembrane Ceramide Transfer” (JAPAN SCIENCE AND TECHNOLOGY AGENCY, priority 2003, published 2008).

Take `CCCCCCCCCCCC(=O)N[C@@H](CO)C[C@@H](O)c1ccccc1` [(1R,3R) HPA-12, (1R,3R)N-(3-hydroxy-1-hydroxymethyl-3-phenyprol) dodecane amide]: the “inhibition of SM synthesis” value with LY-A2 cell [1] (1 μM, cell printed as LY-A2 cell (first sentence of b175)) was “significantly inhibited”; in the assay with CHO-K1 cell it was “significantly inhibited”. Further, in the assay on LY-A2 cell [1] (LY-A2 cell where HPA-12-sensitive pathway is impaired), the “additional inhibition of SM biosynthesis” value is given as “another additional inhibition was not seen”.

B1: FL-hCERT: hCERT with FL (FLAG) sequence added to amino end (protein, UniProt Q9Y5P4 1-624, looked up)
Ceramide transfer protein: MSDNQSWNSSGSEEDPETESGPPVERCGVLSKWTNYIHGWQDRWVVLKNNALSYYKSEDETEYGCRGSICLSKAVITPHDFDECRFDISVNDSVWYLRAQDPDHRQQWIDAIEQHKTESGYGSESSLRRHGSMVSLVSGASGYSATSTSSFKKGHSLREKLAEMETFRDILCRQVDTLQKYFDACADAVSKDELQRDKVVEDDEDDFPTTRSDGDFLHSTNGNKEKLFPHVTPKGINGIDFKGEAITFKATTAGILATLSHCIELMVKREDSWQKRLDKETEKKRRTEEAYKNAMTELKKKSHFGGPDYEEGPNSLINEEEFFDAVEAALDRQDKIEEQSQSEKVRLHWPTSLPSGDAFSSVGTHRFVQKPYSRSSSMSSIDLVSASDDVHRFSSQVEEMVQNHMTYSLQDVGGDANWQLVVEEGEMKVYRREVEENGIVLDPLKATHAVKGVTGHEVCNYFWNVDVRNDWETTIENFHVVETLADNAIIIYQTHKRVWPASQRDVLYLSVIRKIPALTENDPETWIVCNFSVDHDSAPLNNRCVRAKINVAMICQTLVSPPEGNQEISRDNILCKITYVANVNPGGWAPASVLRAVAKREYPKFLKRFTSYVQEKTAGKPILF
modifications: N-terminal FLAG tag
For B1, the MCD resistance entry in the assay on LY-A2 cell [2] is on record as “significantly acquired the MCD resistance”.
